Results as given in patent publication US9302998B2, “Aryl triazole compounds with antitumoural activity” (SIGMA-TAU RESEARCH SWITZERLAND S.A., priority 2010, dated 2016).

Columns and labels:
Hsp90 = target: T1, Hsp90 (Homo sapiens, UniProt P07900); test: Fluorescence Polarization (FP) binding, GM-BODIPY displacement from Hsp90; conditions: GM-BODIPY tracer, 4° C. for 4 hours
T1 construct: purchased Stressgen SPP-776
Procedure: GM-BODIPY (PerkinElmer, CUSN60342000MG) was previously dissolved in DMSO to obtain 10 mM stock solutions and kept at −20° C. until use.
Hsp90 (Stressgen, SPP-776), was previously dissolved in assay buffer (HFB) to form 2.2 μM stock solutions and kept at −80° C. until use.
The compounds were previously dissolved in DMSO to obtain stock solutions and kept at −20° C. The day of experiment, the compounds were prepared by serial dilutions in assay buffer (HFB) containing 20 mM HEPES (K) pH 7.3, 50 mM KCl, 5 mM MgCl2, 20 mM Na2MoO4 and 0.01% NP40. Before each use, 0.1 mg/ml Bovine Gamma globulin and 2 mM DTT were freshly added.
Fluorescence Polarization (FP) was performed in Opti-Plate™-96F well plates (Perkin Elmer, Zaventem, Belgium) using a plate reader (Wallac Envision 2101 multilabel reader, Perkin Elmer, Zaventem, Belgium). To evaluate the binding affinity of the molecules, 50 μl of the GM-BODIPY solution (100 nM) were added to 125 nM of Hsp90 in the presence of 5 μl of the test compounds at increasing concentrations. The plate was mixed on a shaker at 4° C. for 4 hours, and the FP values in mP (millipolarization units) were recorded. The IC50 values were calculated as the inhibitor concentration where 50% of the tracer is displaced; each data point is the result of the average of triplicate wells, and was determined from a plot using nonlinear least-squares analysis. Curve fitting was performed using
Prism GraphPad software program (GraphPad software, Inc., San Diego, Calif.).

[1] = test system: NCI-H460 non-small cell lung carcinoma; test: Cytotoxicity assay, sulphorodamine B test, NCI-H460; assay type: cell-based; conditions: Homo sapiens, NCI-H460; 72 h, sulphorodamine B
Procedure: (§1) The antiproliferative activity of novel Hsp90 inhibitors was also evaluated on various cancerous cell lines by means of the sulphorodamine B test (i.e., NCI-H460 non-small cell lung carcinoma, A431 epidermoid, A2780 ovarian, MDA-MB436 triple-negative breast, U87MG glioblastoma, A498 renal, HCT116 colon, MeWo melanoma, MiaPaCa2 pancreas, HeLa cervix uteri, NB4 promyelocytic leukemia). NCI-H460, A431, MDA-MB436, A2780, A498, HeLa, NB4 tumour cells were grown in RPMI 1640 containing 10% fetal bovine serum (i.e., FBS from GIBCO), L-glutamine, and 50 μg/ml gentamycin sulfate.
(§2) All cell lines were maintained in a 37° C. incubator with saturated humidity and an atmosphere containing 95% air and 5% CO2, and were sub-cultured every 2-3 days. Tumour cells were seeded in 96-well tissue culture plates at approximately 10% confluence and were allowed to attach and recover for 24 h.
(§3) Varying concentrations of the drugs were then added to each well to calculate their IC50 value (the concentration which inhibits the 50% of cell survival). The plates were incubated at 37° C. for 72 h. At the end of the treatment, the plates were washed by remotion of the supernatant and addition of PBS 3 times. 200 μl PBS and 50 μl of cold 80% trichloroacetic acid (TCA) were added. The plates were incubated on ice for at least 1 h. TCA was removed, the plates were washed 3 times by immersion in distilled-water and dried on paper and at 40° C. for […]. Then 200 μl of 0.4% sulphorodamine B in 1% acetic acid were added. The plates were incubated at room temperature for 30 min. Sulphorodamine B was removed, the plates were washed by immersion in 1% acetic acid for 3 times, then they were dried on paper and at 40° C. for 5 min. Then, 200 μl Tris 10 mM were added, the plates were kept under stirring for 20 min. The cell survival was determined as optical density by a Multiskan […] at 540 nm. The amount of cells killed was calculated as the percentage decrease in sulphorodamine B binding compared with control cultures.

[2] = test system: MDA-MB436 triple-negative breast; test: Sulphorodamine B test at single concentration, MDA-MB436; assay type: cell-based; conditions: Homo sapiens, MDA-MB-436; 500 nM, 72 h
Procedure: as §1, §2, §3
(§4) The other cell lines were screened against one single concentration of the various inhibitors (i.e., 500 nM), all experiments being made in octuplicate, following the protocol described at example 35. Since NB4 cell line was grown in suspension, a further step of centrifugation (i.e., 1600 g for 10 min) was added after the 72 hour incubation period.

A498 renal = test: Sulphorodamine B test at single concentration, A498; assay type: cell-based; conditions: Homo sapiens, 500 nM, 72 h
Procedure: as §1, §2, §3, §4

MeWo melanoma = test: Sulphorodamine B test at single concentration, MeWo; assay type: cell-based; conditions: Homo sapiens, 500 nM, 72 h
Procedure: as §1
(§5) MeWo and U87-MG cells were cultured in Eagle's Minimum Essential Medium (i.e., EMEM) containing 10% FBS, L-glutamine, 1 mM sodium pyruvate, 0.1 mM non-essential amino acids, 1.5 g/l sodium bicarbonate, and 50 μg/ml gentamycin sulphate.
as §2, §3, §4

[3] = test system: NB4 promyelocytic leukemia; test: Sulphorodamine B test at single concentration, NB4; assay type: cell-based; conditions: 500 nM, 72 h, suspension cells
Procedure: as §1, §2, §3, §4

HeLa cervix uteri = test: Sulphorodamine B test at single concentration, HeLa; assay type: cell-based; conditions: Homo sapiens, 500 nM, 72 h
Procedure: as §1, §2, §3, §4

A431 epidermoid = test: Sulphorodamine B test at single concentration, A431; assay type: cell-based; conditions: Homo sapiens, A-431; 500 nM, 72 h
Procedure: as §1, §2, §3, §4

MiaPaCa2 pancreas = test: Sulphorodamine B test at single concentration, MiaPaCa2; assay type: cell-based; conditions: Homo sapiens, MIA PaCa-2; 500 nM, 72 h
Procedure: as §1
MiaPaCa2 cells were cultured in DMEM medium containing 10% FBS, L-glutamine, and 50 μg/ml gentamycin sulfate.
as §2, §3, §4

A2780 ovarian = test: Sulphorodamine B test at single concentration, A2780; assay type: cell-based; conditions: Homo sapiens, 500 nM, 72 h
Procedure: as §1, §2, §3, §4

HCT116 colon = test: Sulphorodamine B test at single concentration, HCT116; assay type: cell-based; conditions: Homo sapiens, HCT-116; 500 nM, 72 h
Procedure: as §1
HCT116 cells were cultured in McCoy's medium containing 10% FBS, L-glutamine, and 50 μg/ml gentamycin sulfate.
as §2, §3, §4

U87MG glioblastoma = test: Sulphorodamine B test at single concentration, U87MG; assay type: cell-based; conditions: Homo sapiens, U-87 MG; 500 nM, 72 h
Procedure: as §1, §5, §2, §3, §4

IC50 (Hsp90) | SMILES | IC50 [1] | inhibition at 0.5 µM (MiaPaCa2 pancreas) | inhibition at 0.5 µM (A2780 ovarian) | also measured
< 50 nM | CC(C)c1cc(-n2nncc2-c2ccc(CN3CCOCC3)cc2)c(O)cc1O [Example 1] | 100 to 500 nM |  |  | 
< 50 nM | CC(C)c1cc(-n2nncc2-c2ccc(CN3CCN(Cc4ccccc4)CC3)cc2)c(O)cc1O [Example 3, 4-{5-[4-(4-benzyl-piperazin-1-ylmethyl)-phenyl]-[1,2,3]triazol-1-yl}-6-isopropyl-benzene-1,3-diol] | 100 to 500 nM | ≥ 50% | ≥ 50% | inhibition at 0.5 µM [2]: ≥ 50%; inhibition at 0.5 µM (A498 renal): 30 to 50%; inhibition at 0.5 µM (MeWo melanoma): ≥ 50%; inhibition at 0.5 µM [3]: ≥ 50%; inhibition at 0.5 µM (HeLa cervix uteri): ≥ 50%; inhibition at 0.5 µM (A431 epidermoid): ≥ 50%; inhibition at 0.5 µM (HCT116 colon): ≥ 50%
< 50 nM | CC(C)c1cc(-n2nncc2-c2ccc(CN3CCN(c4ccccc4)CC3)cc2)c(O)cc1O [Example 4, 4-isopropyl-6-{5-[4-(4-phenyl-piperazin-1-ylmethyl)-phenyl]-[1,2,3]triazol-1-yl}-benzene-1,3-diol] | 500 to 1000 nM |  |  | 
< 50 nM | CCNC(=O)c1nnn(-c2cc(C(C)C)c(O)cc2O)c1-c1ccc(CN(CC)CC)cc1 [Example 10, 5-(4-diethylaminomethyl-phenyl)-1-(2,4-dihydroxy-5-isopropyl-phenyl)-1H-[1,2,3]triazole-4-carboxylic acid ethylamide] | < 50 nM |  |  | 
< 50 nM | CCNC(=O)c1nnn(-c2cc(C(C)C)c(O)cc2O)c1-c1ccc(CN2CCNCC2)cc1 [Example 12, 1-(2,4-dihydroxy-5-isopropyl-phenyl)-5-(4-piperazin-1-ylmethyl-phenyl)-1H-[1,2,3]triazole-4-carboxylic acid ethylamide] | 100 to 500 nM | ≥ 50% | ≥ 50% | inhibition at 0.5 µM [2]: ≥ 50%; inhibition at 0.5 µM (A498 renal): 30 to 50%
< 50 nM | CCNC(=O)c1nnn(-c2cc(C(C)C)c(O)cc2O)c1-c1ccc(CN2CCC(N(C)C)CC2)cc1 [Example 13, 1-(2,4-dihydroxy-5-isopropyl-phenyl)-5-[4-(4-dimethylamino-piperidin-1-ylmethyl)-phenyl]-1H-[1,2,3]triazole-4-carboxylic acid ethylamide] | 100 to 500 nM | ≥ 50% | ≥ 50% | inhibition at 0.5 µM [2]: ≥ 50%; inhibition at 0.5 µM (A498 renal): 30 to 50%; inhibition at 0.5 µM (MeWo melanoma): ≥ 50%; inhibition at 0.5 µM (U87MG glioblastoma): ≥ 50%; inhibition at 0.5 µM (HeLa cervix uteri): 30 to 50%; inhibition at 0.5 µM (A431 epidermoid): ≥ 50%; inhibition at 0.5 µM (HCT116 colon): ≥ 50%
< 50 nM | CCNC(=O)c1nnn(-c2cc(C(C)C)c(O)cc2O)c1-c1ccc(CNCCN2CCOCC2)cc1 [Example 14, 1-(2,4-dihydroxy-5-isopropyl-phenyl)-5-{4-[(2-morpholin-4-yl-ethylamino)-methyl]-phenyl}-1H-[1,2,3]triazole-4-carboxylic acid ethylamide] | 100 to 500 nM | ≥ 50% | ≥ 50% | inhibition at 0.5 µM [2]: ≥ 50%; inhibition at 0.5 µM (MeWo melanoma): ≥ 50%; inhibition at 0.5 µM (U87MG glioblastoma): ≥ 50%; inhibition at 0.5 µM (A431 epidermoid): ≥ 50%; inhibition at 0.5 µM (HCT116 colon): 30 to 50%
< 50 nM | CCNC(=O)c1nnn(-c2cc(C(C)C)c(O)cc2O)c1-c1ccc(CNC2CCCCC2)cc1 [Example 16, 5-(4-cyclohexylaminomethyl-phenyl)-1-(2,4-dihydroxy-5-isopropyl-phenyl)-1H-[1,2,3]triazole-4-carboxylic acid ethylamide] | < 50 nM |  |  | 
< 50 nM | CCNC(=O)c1nnn(-c2cc(C(C)C)c(O)cc2O)c1-c1ccc(CNCCCN(CC)CC)cc1 [Example 18, 5-{4-[(3-diethylamino-propylamino)-methyl]-phenyl}-1-(2,4-dihydroxy-5-isopropyl-phenyl)-1H-[1,2,3]triazole-4-carboxylic acid ethylamide] | 500 to 1000 nM |  |  | 
< 50 nM | CCNC(=O)c1nnn(-c2cc(C(C)C)c(O)cc2O)c1-c1ccc(CNC2CCN(C)CC2)cc1 [Example 19, 1-(2,4-dihydroxy-5-isopropyl-phenyl)-5-{4-[(1-methyl-piperidin-4-ylamino)-methyl]-phenyl}-1H-[1,2,3]triazole-4-carboxylic acid ethylamide] |  |  |  | 
50 to 100 nM | CC(C)c1cc(-n2nncc2Nc2ccc(N3CCOCC3)cc2)c(O)cc1O [Example 23, 4-isopropyl-6-[5-(4-morpholin-4-yl-phenylamino)-[1,2,3]triazol-1-yl]-benzene-1,3-diol] |  |  |  | 
100 to 500 nM | CC(C)c1cc(-n2nncc2NCc2ccc(N3CCOCC3)cc2)c(O)cc1O [Example 24, 4-isopropyl-6-[5-(4-morpholin-4-yl-benzylamino)-[1,2,3]triazol-1-yl]-benzene-1,3-diol] |  |  |  | 
50 to 100 nM | CCNC(=O)c1nnn(-c2cc(C(C)C)c(O)cc2O)c1Nc1ccc(N2CCOCC2)cc1 [Example 25, 1-(2,4-dihydroxy-5-isopropyl-phenyl)-5-(4-morpholin-4-yl-phenylamino)-1H-[1,2,3]triazole-4-carboxylic acid ethylamide] | 500 to 1000 nM |  |  | 
< 50 nM | CCNC(=O)c1nnn(-c2cc(C(C)C)c(O)cc2O)c1NCc1ccc(N2CCOCC2)cc1 [Example 26, 1-(2,4-dihydroxy-5-isopropyl-phenyl)-5-(4-morpholin-4-yl-benzylamino)-1H-[1,2,3]triazole-4-carboxylic acid ethylamide] | 100 to 500 nM | ≥ 50% | ≥ 50% | inhibition at 0.5 µM (A498 renal): ≥ 50%; inhibition at 0.5 µM (MeWo melanoma): 30 to 50%; inhibition at 0.5 µM [3]: 30 to 50%; inhibition at 0.5 µM (HCT116 colon): ≥ 50%
100 to 500 nM | CC(C)c1cc(-n2nnc(C(=O)N3CCOCC3)c2-c2ccc(CN3CCOCC3)cc2)c(O)cc1O [Example 30, [1-(2,4-dihydroxy-5-isopropyl-phenyl)-5-(4-morpholin-4-ylmethyl-phenyl)-1H-[1,2,3]triazol-4-yl]-morpholin-4-yl-methanone] |  |  |  | 
100 to 500 nM | CC(C)c1cc(-n2nnc(C(=O)N[C@H](C(=O)O)C(C)C)c2-c2ccc(CN3CCOCC3)cc2)c(O)cc1O [Example 31, (S)-2-{[1-(2,4-dihydroxy-5-isopropyl-phenyl)-5-(4-morpholin-4-ylmethyl-phenyl)-1H-[1,2,3]triazole-4-carbonyl]-amino}-3-methyl-butyric acid] |  |  |  | 
